# Reference: the supplement of paper PMC10307832
# What was measured:
# Test in all cases: relative viability (nuclei count vs DMSO), 5 days (fraction); higher = more cells survive
# IDH-C35 + Foretinib = compound: Cc1ccccc1C(C(=O)NC1CCCCC1)N(C(=O)Cn1ccnc1C)c1cccc(F)c1 [IDH-C35] + COc1cc2c(Oc3ccc(NC(=O)C4(C(=O)Nc5ccc(F)cc5)CC4)cc3F)ccnc2cc1OCCCN1CCOCC1 [Foretinib] (partner 0.25 µM)
# In short: (§1)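 A single step with final 0.05% Triton X-100, 1% formaldehyde and 1 ug/ml Hoechst fixed the cells and stained nuclei 5 days after treatment. Lung cancer cell lines in 1536-well plates had been treated by pin tool the day after seeding with one drug alone or a fixed anchor-drug dose plus five library-drug doses (not always all listed) in √10 steps, and nuclei were counted on 4× images. Relative viability is the ratio of nuclei in treated wells to nuclei in vehicle wells, taken as the median of duplicate plates.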
# [1] = compound: CC1=C(C(=NN1)C)CC2=C(C3=C(S2)N(C(=O)N(C3=O)C)CC(C)C)C(=O)N4C[C@@H](CO4)O + Cc1cc(Nc2cc(N3CCN(C)CC3)nc(Sc3ccc(NC(=O)C4CC4)cc3)n2)n[nH]1 [Tozasertib] (partner 0.1 µM)
# In short: as §1
# IDH-C35 + Bortezomib = compound: Cc1ccccc1C(C(=O)NC1CCCCC1)N(C(=O)Cn1ccnc1C)c1cccc(F)c1 [IDH-C35] + CC(C)C[C@H](NC(=O)[C@H](Cc1ccccc1)NC(=O)c1cnccn1)B(O)O [Bortezomib] (partner 0.002 µM)
# In short: as §1
# IDH-C35 + Linsitinib = compound: Cc1ccccc1C(C(=O)NC1CCCCC1)N(C(=O)Cn1ccnc1C)c1cccc(F)c1 [IDH-C35] + C[C@]1(O)C[C@@H](c2nc(-c3ccc4ccc(-c5ccccc5)nc4c3)c3c(N)nccn32)C1 [Linsitinib] (partner 1 µM)
# In short: as §1
Cell Line,relative viability (IDH-C35 + Foretinib; first compound 0.08 µM),relative viability (IDH-C35 + Foretinib; first compound 0.253 µM),relative viability (IDH-C35 + Foretinib; first compound 0.8 µM),relative viability (IDH-C35 + Foretinib; first compound 2.53 µM),relative viability (IDH-C35 + Foretinib; first compound 8 µM),relative viability ([1]; first compound 0.0025 µM),relative viability ([1]; first compound 0.007906 µM),relative viability ([1]; first compound 0.025 µM),relative viability ([1]; first compound 0.07906 µM),relative viability ([1]; first compound 0.25 µM),relative viability (IDH-C35 + Bortezomib; first compound 0.08 µM),relative viability (IDH-C35 + Bortezomib; first compound 0.253 µM),relative viability (IDH-C35 + Bortezomib; first compound 0.8 µM),relative viability (IDH-C35 + Bortezomib; first compound 8 µM),relative viability (IDH-C35 + Linsitinib; first compound 0.08 µM),relative viability (IDH-C35 + Linsitinib; first compound 0.253 µM),relative viability (IDH-C35 + Linsitinib; first compound 0.8 µM),relative viability (IDH-C35 + Linsitinib; first compound 8 µM),relative viability (IDH-C35 + Bortezomib; first compound 2.53 µM),relative viability (IDH-C35 + Linsitinib; first compound 2.53 µM)
LCLC-97TM1,0.921,0.865,0.947,1.02,0.954,0.207,0.277,0.219,0.209,0.285,0.616,0.691,0.53,0.511,0.209,0.194,0.179,0.193,–,–
LCLC-103H,0.795,0.717,0.85,0.754,0.736,0.544,0.564,0.505,0.551,0.543,1.09,1.14,1.07,0.973,1.21,1.01,0.98,1.07,0.98,1.13
LOU-NH91,0.949,0.946,0.92,0.918,0.913,0.723,0.674,0.709,0.792,0.838,0.574,0.485,0.519,0.502,0.944,0.998,0.968,0.973,0.527,0.927
LU99A,0.939,0.915,0.81,0.69,0.85,0.24,0.285,0.279,0.274,0.283,1.14,1.1,1.1,1.16,0.569,0.536,0.506,0.6,1.05,0.593
LXF-289,0.969,0.94,1.01,1.01,0.969,0.205,0.213,0.18,0.186,0.22,0.984,1,0.941,0.955,0.94,0.971,0.936,0.956,0.999,0.949
NCI-H23,0.912,1.03,1.1,1.04,0.846,0.784,0.42,0.412,0.334,0.388,0.977,0.836,1.07,0.94,0.514,0.541,0.541,0.505,1.13,0.523
NCI-H322M,0.93,0.886,0.945,0.916,0.983,0.532,0.485,0.454,0.495,0.461,1.22,1.17,1.15,1.27,0.965,0.878,0.81,0.794,1.21,0.95
NCI-H441,0.863,0.753,0.948,1,0.888,0.657,0.647,0.575,0.664,0.623,0.524,–,0.617,0.447,0.589,0.518,0.404,0.633,0.508,0.651
NCI-H460,1.02,1.01,1.02,0.989,0.904,0.493,0.337,0.494,0.479,0.54,1.2,1.18,1.08,1.12,0.909,0.872,0.843,0.663,1.11,0.749
NCI-H520,0.788,0.749,0.821,0.72,0.654,0.406,0.433,0.432,0.445,0.407,0.759,0.344,0.636,0.756,0.915,0.969,1,0.907,0.731,0.888
NCI-H596,0.948,0.796,0.775,–,0.763,0.976,1.07,1.04,0.94,0.889,1.02,0.998,1.2,0.999,1.14,1.14,0.986,1.13,1.2,1.14
NCI-H647,1.36,1.13,1.28,1.17,1.02,0.2,0.265,0.269,0.189,0.322,1.08,0.805,0.989,0.889,1.03,1.29,1.18,1.1,1.19,1.1
NCI-H650,1.03,1.04,1.05,–,0.981,0.77,0.747,0.702,0.692,0.739,0.774,0.93,0.755,0.861,1.09,1.05,0.799,0.771,–,–
NCI-H661,1.03,0.964,0.981,0.988,1.03,0.344,0.372,0.354,0.341,0.353,0.953,0.809,0.837,0.761,0.625,0.54,0.51,0.644,0.828,0.54
NCI-H727,0.87,0.693,1.07,0.832,0.764,0.676,0.788,0.696,0.513,0.513,0.891,0.896,0.801,0.94,0.202,0.248,0.328,0.254,0.782,0.249
NCI-H838,1.07,0.991,0.95,0.998,1.03,0.268,0.25,0.212,0.22,0.242,1.06,0.758,0.668,1.08,1.08,0.959,0.949,0.943,1.1,1.04

Cell Line,relative viability (IDH-C35 + Foretinib; first compound 0.08 µM),relative viability (IDH-C35 + Foretinib; first compound 0.253 µM),relative viability (IDH-C35 + Foretinib; first compound 0.8 µM),relative viability (IDH-C35 + Foretinib; first compound 2.53 µM),relative viability (IDH-C35 + Foretinib; first compound 8 µM),relative viability ([1]; first compound 0.0025 µM),relative viability ([1]; first compound 0.007906 µM),relative viability ([1]; first compound 0.025 µM),relative viability ([1]; first compound 0.07906 µM),relative viability ([1]; first compound 0.25 µM),relative viability (IDH-C35 + Bortezomib; first compound 0.08 µM),relative viability (IDH-C35 + Bortezomib; first compound 0.253 µM),relative viability (IDH-C35 + Bortezomib; first compound 0.8 µM),relative viability (IDH-C35 + Bortezomib; first compound 8 µM),relative viability (IDH-C35 + Linsitinib; first compound 0.08 µM),relative viability (IDH-C35 + Linsitinib; first compound 0.253 µM),relative viability (IDH-C35 + Linsitinib; first compound 0.8 µM),relative viability (IDH-C35 + Linsitinib; first compound 8 µM),relative viability (IDH-C35 + Bortezomib; first compound 2.53 µM),relative viability (IDH-C35 + Linsitinib; first compound 2.53 µM)
NCI-H1355,1.04,1.02,0.935,0.982,1,0.527,0.437,0.529,0.566,0.623,1.21,1.15,1.16,1.05,0.896,0.859,0.848,0.892,1.17,0.773
NCI-H1437,1.29,1.28,1.25,1.29,1.23,0.399,0.409,0.408,0.409,0.438,0.629,0.456,0.451,0.548,0.998,1.14,0.989,1.03,0.639,1.14
NCI-H1651,0.858,0.809,0.732,0.822,0.79,0.702,0.802,0.58,0.625,0.767,0.884,0.999,0.878,0.876,0.918,0.925,0.966,0.903,0.992,1.02
NCI-H1666,1.05,0.92,0.982,1.01,0.848,0.599,0.661,0.592,0.806,0.633,0.769,0.881,0.914,0.691,0.775,0.79,0.888,0.941,0.872,0.904
NCI-H1734,0.799,0.913,0.936,0.796,0.774,0.309,0.248,0.25,0.234,0.259,1.06,1.17,0.85,0.914,0.891,0.862,0.839,0.833,0.892,0.772
NCI-H1755,0.951,0.921,0.874,0.95,0.933,0.71,0.571,0.543,0.486,0.593,0.885,1.04,0.881,0.933,0.952,0.946,0.984,0.962,0.971,1.02
NCI-H1915,1.07,1.13,1.07,1.05,1.07,0.443,0.436,0.446,0.446,0.45,0.939,0.977,0.963,0.995,1.13,1.12,1.1,1.09,0.961,1.07
NCI-H1975,0.938,0.951,1.01,0.974,0.862,0.801,0.682,0.791,0.905,0.739,0.383,0.376,0.421,0.315,0.854,0.937,0.93,0.878,0.354,0.92
NCI-H1993,0.797,0.688,0.811,0.787,0.759,0.559,0.522,0.546,0.508,0.572,1.07,1.03,1.16,1.24,0.758,0.776,0.817,0.798,1.19,0.745
NCI-H2009,1.17,1.28,1.24,1.13,1.18,0.751,0.695,0.779,0.829,0.745,1.13,1.01,1.04,0.874,1.18,1.24,1.16,1.14,1.03,1.23
NCI-H2023,0.918,1,1.09,0.76,0.839,0.332,0.362,0.356,0.412,0.327,0.998,1.13,1.01,0.911,0.719,0.612,0.712,0.557,0.349,0.646
NCI-H2085,0.895,0.907,0.902,1,0.897,0.723,0.622,0.76,0.72,0.669,1.02,1.05,0.981,0.871,0.807,0.815,0.922,0.846,0.982,0.992
NCI-H2087,0.953,0.924,1.15,–,1.17,0.275,0.233,0.281,0.219,0.33,0.846,0.959,0.805,0.654,1.03,0.826,0.744,0.881,0.863,0.87
NCI-H2126,1.14,1.22,1.15,1.14,1.06,0.923,0.835,0.832,0.788,0.901,1.14,1.12,1.15,1.07,0.765,0.667,0.712,0.703,1.09,0.726
NCI-H2228,0.939,0.814,0.973,0.853,0.667,0.239,0.248,0.265,0.26,0.279,0.968,0.857,0.898,0.818,0.596,0.496,0.629,0.749,1.09,0.668
NCI-H2347,1.19,0.992,0.799,0.955,1.01,0.584,0.591,0.54,0.522,0.727,0.912,1.02,0.929,0.878,0.973,0.932,1.01,0.918,1.08,0.987
